System: Plasmopara viticola
Assay: Activity against peronospora of grapevines caused by Plasmopara viticola (protective spray on potted vines)
Type: in vivo
Settings: individual active compound, grapevine leaves cv. Müller-Thurgau, untreated control 81% infection
Description: The active compounds, separately or jointly, were prepared as a stock solution comprising 0.25% by weight of active compound in acetone or DMSO. 1% by weight of the emulsifier Uniperol® EL (wetting agent having emulsifying and dispersant action based on ethoxylated alkylphenols) was added to this solution, and the mixture was diluted with water to the desired concentration.
Use example—Activity against peronospora of grapevines caused by Plasmopara viticola
Leaves of potted vines of the cultivar “Müller-Thurgau” were sprayed to runoff point with an aqueous suspension having the concentration of active compound stated below. The next day, the undersides of the leaves were inoculated with an aqueous zoospore suspension of Plasmopara viticola. The grapevines were then initially placed in a water-vapor-saturated chamber at 24° C. for 48 hours and then in a greenhouse at 20-30° C. for 5 days. After this period of time, the plants were again placed in a humid chamber for 16 hours to promote sporangiophore eruption. The extent of the development of the disease on the undersides of the leaves was then determined visually.
The visually determined percentages of infected leaf areas were converted into efficacies in % of the untreated control:
The efficacy (E) is calculated as follows using Abbot's formula: E=(1−α/β)−100 α corresponds to the fungicidal infection of the treated plants in % and β corresponds to the fungicidal infection of the untreated (control) plants in %
An efficacy of 0 means that the infection level of the treated plants corresponds to that of the untreated control plants; an efficacy of 100 means that the treated plants were not infected.
The expected efficacies of mixtures of active compounds were determined using Colby's formula (Colby, S. R. “Calculating synergistic and antagonistic responses of herbicide combinations”, Weeds, 15, 20-22, 1967) and compared with the observed efficacies.
Colby's formula: E=x+y−x·y/100 E expected efficacy, expressed in % of the untreated control, when using the mixture of the active compounds A and B at the concentrations a and b x efficacy, expressed in % of the untreated control, when using the active compound A at the concentration a y efficacy, expressed in % of the untreated control, when using the active compound B at the concentration b

CC1CCN(c2c(-c3c(F)cccc3Cl)c(Cl)nc3ncnn23)CC1 [Comparison A]
Efficacy in % of the untreated control (4 ppm in the spray liquor): 13%

C[C@H](Nc1c(-c2c(F)cc(F)cc2F)c(Cl)nc2ncnn12)C(F)(F)F [Comparison B]
Efficacy in % of the untreated control (4 ppm in the spray liquor): 13%

CC1CCN(c2c(-c3c(F)cc(F)cc3F)c(Cl)nc3ncnn23)CC1 [I, 5-chloro-7-(4-methylpiperidin-1-yl)-6-(2,4,6-trifluorophenyl)-[1,2,4]triazolo[1,5-a]pyrimidine]
Efficacy in % of the untreated control (4 ppm in the spray liquor): 51%

N#Cc1sc2c(=O)c3ccccc3c(=O)c=2sc1C#N [II (dithianon), 5,10-dioxo-5,10-dihydronaphtho[2,3-b][1,4]dithiine-2,3-dicarbonitrile]
Efficacy in % of the untreated control (1 ppm in the spray liquor): 1% | Efficacy in % of the untreated control (4 ppm in the spray liquor): 13% | Efficacy in % of the untreated control (16 ppm in the spray liquor): 13%
